Results: patent publication US20240415819A1, “MACROCYCLIC COMPOUNDS AS PROTEASOME SUBUNIT BETA TYPE-5 INHIBITORS” (Lead Discovery Center GmbH, priority 2021, published 2024)
pIC50: −log10 of the molar value. Where two headings read alike, the source gives them in different places.

How the values were obtained:
[1] = system: Karpas cells; test: Glo assay of Karpas cells (Table 3; ProteasomeGlo plating scheme); assay type: cell-based; conditions: read-out: Pglo Karpas
From the text: Inhibition is indicated as IC50 [nM] (“-”=not measured). […] • Chymotrypsin-Like Cell-Based Proteasome-GloTM Assay (Promega; […]) • Cell culture 384-well plates (Greiner BioOne; 781080) • Dispensing cassette, MultiDrop Standard tube dispensing cassette (Thermo Scientific; 24072670) • DPBS (Pan BioTech; P04-36500) • Cell culture 384-well plates (Greiner BioOne; 781080) • CPD source plate: diamond-shape plate (Labcyte; LP-0200) • Intermediate plate (Labcyte; P-05525) [table] • a. Remove the plates with cells from the incubator. • b. Take all the plates including the compound plate, intermediate plate and Staurosporine plate to the ECHO. • c. Click on “Open” in the ECHO software and select the protocol “QLI5_25ul_30 uM-Grenier”. • d. Follow the on-screen prompts and instructions once you click “Start” to insert the compound plate, intermediate plate and destination plates. • e. Change the final number of destination plates on the program. • f. Follow the on-screen prompts and instructions once you click “Start” to load the Staurosporine and destination plates. • g. Once all the compounds, DMSO and Staurosporine have been transferred, place the destination plates in a wet tissue box. • h. Place the destination plates back into the incubator and incubate at 37° C., 5% CO2 for 105 minutes. • i. Re-seal all the compound+Stauro diamond and intermediate plates and store in the dark. Chymotrypsin like ProteasomeGlo Assay • 1. Thaw the components of the ProteasomeGlo assay at room temperature including the ProteasomeGlo Buffer, the lyophilized Luciferin Detection Reagent and the Suc-LLVY-Glo Substrate. • 2. Reconstitute the Luciferin Detection Reagent in the amber coloured bottle by adding 50 ml of the ProteasomeGlo Buffer. • 3. Vortex the Suc-LLVY-Glo Substrate briefly to reconstitute the Substrate well. • 4. Spin down the Substrate and add 250 μl of the Substrate to the reconstituted Luciferin Detection Reagent from step 2. • 5. Briefly vortex the amber bottle with the mix to prepare a homogenous solution. • 6. Place the mix prepared in step 5 to sit at room temperature for 60 minutes. • 7. After 60 minutes, pipette 25 μl of the mix from step 5 into all wells with the cells. • 8. Shake the plates for 2-5 minutes to ensure the complete mixing of the ProteasomeGlo reagent with the cells. • 9. Leave the plates in the dark for 10-15 minutes. • 10. Measure the luminescence read-out using the Viktor and the protocol “Luminescence_384Well_0.2 sec”. (Note: The Protoeasome-GloTM Reagent (combined Proteasome-GloTM Substrate, Proteasome-GloTM Buffer and Luciferin Detection Reagent) can be stored at 4° C. or -20° C. for 1 month with minimal loss of activity.)

[2] = system: B-cells isolated from PBMC's; test: Chymotrypsin-like ProteasomeGlo assay in B-cells isolated from PBMCs; assay type: cell-based, human; conditions: Homo sapiens; for pIC50: B-cells isolated from PBMC's, read-out: Pglo B-Cell
From the text: PBMC's will be isolated from human blood followed by B-cell isolation from the PBMC's using the Miltenyi Isolation Kit. • 2. This experiment will use the Chymotrypsin-like ProteasomeGlo read-out to generate IC50's following compound treatment. • 3. Dilute all compounds 1:100 for the assay. • 4. […] Repeat the DMSO transfer with lane 12. • 5. Lane 12 should not be seeded with any cells. Only medium! • 6. For all steps, make sure the samples and reagents remain cool! • 7. While dealing with the buffy coats, be careful to not let any exposed skin to be in direct contact with the blood. […] PBMC isolation followed by B-cell isolation using the Miltenyi Kit • Day 2: B-cell plating, ECHO transfer and ProteasomeGlo assay For the initial steps and to make processing the buffy coats easier, separately process the buffy coats. • a. Cut the tube attached to the buffy coats carefully using a clean, sterile and fresh scalpel. • b. Transfer the blood into 2 individual 50 ml falcons. • c. Add an equal volume of DPBS to the blood in the falcons. • d. Add 20 ml of lymphocyte separating medium to two 50 ml falcons. • e. Carefully pour 15-20 ml of the blood+DPBS mix from step c. onto the lymphocyte separating medium from step d. • f. Centrifuge the falcons with the lymphocyte separating medium+blood mix at 800×g for 15 minutes using a swing-out rotor. • g. Following centrifugation, carefully remove the falcons from the centrifuge. • h. The following layers will be observed: • i. Aspirate the plasma layer off carefully without disturbing the different layers. • j. Remove the cell pellet using a pipette into two fresh 50 ml falcons. • k. Fill the falcons with the cells up to 50 ml with DPBS. • l. Centrifuge the falcons at 250×g for 10 minutes using a swing-out rotor (Brake-off). • m. Aspirate the complete DPBS off the cells without disturbing the cell pellet at the bottom of the falcon. • n. Re-suspend the cell pellet in 10 ml of 1×RBC lysis buffer. • o. Incubate the falcons at room temperature in the dark for 10 minutes. • p. After RBC lysis, centrifuge the tubes at 250×g for 10 minutes using a swing-out rotor (brake-off). • (*Note: If the cell pellet is still red or light red, repeat steps n. to p.!) • q. Re-suspend the cell pellet in DPBS up to 50 ml in the falcon. • r. Centrifuge the falcons at 250×g for 10 minutes using a swing-out rotor (Brake-off). • s. Aspirate the DPBS off the cells without disturbing the cell pellet at the bottom of the falcon. • t. Repeat the wash step as described in steps q. to s. 2× times more (total number of washes is 3×). • u. Aspirate the DPBS completely off the cell pellet after the last wash without disturbing the cell pellet. • v. Re-suspend the cell pellet in 20 ml of PBMC cell medium. • w. […] Re-suspend the pellet in volume of the B-cell isolation buffer calculated as follows: • k. Mix well using a 1 ml pipette and incubate the mix on ice for 20 mins. • l. In the meantime, equilibrate one LS Column as follows: • 1. Insert one LS Column into one slot of the separator as depicted in the pictures above. • 2. Place a 50 ml falcon at the bottom of the LS column to collect the wash flow-through. • 3. Add 3 ml of the B-cell isolation buffer into the column. • 4. Allow the buffer to flow-through making sure that the entire volume passes the column and that the column reservoir is empty before the addition of the cells. • 5. Remove the falcon with the flow-through and discard. • m. Place a fresh 50 ml falcon under the LS Column to collect the untouched B-cells isolated from the PBMCs. • n. Apply the entire volume of the cell+antibody+microbeads mix to the LS Column. • o. Collect the flow-through from each application of the mix into the same 50 ml falcon under the LS Column. • p. Once the complete volume of the cell+antibody+microbead mix has been passed through, proceed to washing of the column. • q. Add 3 ml of the B-cell isolation buffer to the LS Column and allow the buffer to flow-through. […]

| Structure (SMILES) | pIC50 [1] | pIC50 [2] | IC50 ([2]; read-out: Pglo B-Cell [nM]) [nM] |
| --- | --- | --- | --- |
| Cc1ccc2cc1CNC(=O)[C@H](CCc1ccccc1)NC(=O)[C@@H](NC(=O)CN1CCCC1)CC(=O)N1CCCC(CCO2)C1 (stereo partly drawn) [Compound 89, N-((9S,12S)-5^4-methyl-8,11,14-trioxo-9-phenethyl-4-oxa-7,10-diaza-1(3,1)-piperidina-5(1,3)-benzenacyclotetradecaphane-12-yl)-2-(pyrrolidin-1-yl)acetamide] | > 7.00 | – | – |
| Cc1ccc2cc1CNC(=O)[C@H](CCc1ccccc1)NC(=O)[C@@H](NC(=O)[C@H](C)c1ccccc1)CC(=O)N1CCCC(CCO2)C1 (stereo partly drawn) [Compound 80, (2R)-N-((9S,12S)-5^4-methyl-8,11,14-trioxo-9-phenethyl-4-oxa-7,10-diaza-1(3,1)-piperidina-5(1,3)-benzenacyclotetradecaphane-12-yl)-2-phenylpropanamide] | > 7.00 | > 7.00 | – |
| Cc1ccc2cc1CNC(=O)C(CCc1cccnc1)NC(=O)CCC(=O)N1CCCC(CCO2)C1 (stereo not drawn) [Compound 51, 5^4-methyl-9-(2-(pyridin-3-yl)ethyl)-4-oxa-7,10-diaza-1(3,1)-piperidina-5(1,3)-benzenacyclotetradecaphane-8,11,14-trione] | – | > 7.00 | – |
| COc1ccc(CC(=O)N[C@H]2CC(=O)N3CCCC(CCOc4ccc(C)c(c4)CNC(=O)[C@H](CCc4ccccc4)NC2=O)C3)cc1 (stereo partly drawn) [Compound 83, 2-(4-methoxyphenyl)-N-((9S,12S)-5^4-methyl-8,11,14-trioxo-9-phenethyl-4-oxa-7,10-diaza-1(3,1)-piperidina-5(1,3)-benzenacyclotetradecaphane-12-yl)acetamide] | > 7.00 | > 7.00 | – |
| Cc1ccc2cc1CNC(=O)[C@H](CCc1ccccc1)NC(=O)[C@@H](NC(=O)CN1CCOCC1)CC(=O)N1CCCC(CCO2)C1 (stereo partly drawn) [Compound 88, N-((9S,12S)-5^4-methyl-8,11,14-trioxo-9-phenethyl-4-oxa-7,10-diaza-1(3,1)-piperidina-5(1,3)-benzenacyclotetradecaphane-12-yl)-2-morpholinoacetamide] | > 7.00 | > 7.00 | – |
| Cc1ccc2cc1CNC(=O)[C@H](CCc1ccccc1)NC(=O)[C@@H](NC(=O)c1cc3cc(C(F)(F)F)ccc3n1C)CC(=O)N1CCCC(CCO2)C1 (stereo partly drawn) [Compound 87, 1-methyl-N-((9S,12S)-5^4-methyl-8,11,14-trioxo-9-phenethyl-4-oxa-7,10-diaza-1(3,1)-piperidina-5(1,3)-benzenacyclotetradecaphane-12-yl)-5-(trifluoromethyl)-1H-indole-2-carboxamide] | > 7.00 | – | – |
| COc1cccc(CC(=O)N[C@H]2CC(=O)N3CCCC(CCOc4ccc(C)c(c4)CNC(=O)[C@H](CCc4ccccc4)NC2=O)C3)c1 (stereo partly drawn) [Compound 85, 2-(3-methoxyphenyl)-N-((9S,12S)-5^4-methyl-8,11,14-trioxo-9-phenethyl-4-oxa-7,10-diaza-1(3,1)-piperidina-5(1,3)-benzenacyclotetradecaphane-12-yl)acetamide] | > 7.00 | – | – |
| Cc1ccc2cc1CNC(=O)[C@H](Cc1ccccc1)NC(=O)CCC(=O)N1CCCC(CCO2)C1 (stereo partly drawn) [Compound 79, (9S)-9-benzyl-5^4-methyl-4-oxa-7,10-diaza-1(3,1)-piperidina-5(1,3)-benzenacyclotetradecaphane-8,11,14-trione] | 6.00 to 6.30 | 6.00 to 6.30 | – |
| CO[C@@H](C(=O)N[C@H]1CC(=O)N2CCCC(CCOc3ccc(C)c(c3)CNC(=O)[C@H](CCc3ccccc3)NC1=O)C2)c1ccccc1 (stereo partly drawn) [Compound 86, (2R)-2-methoxy-N-((9S,12S)-5^4-methyl-8,11,14-trioxo-9-phenethyl-4-oxa-7,10-diaza-1(3,1)-piperidina-5(1,3)-benzenacyclotetradecaphane-12-yl)-2-phenylacetamide] | > 7.00 | – | – |
| Cc1ccc2cc1CNC(=O)[C@H](CCc1ccccc1)NC(=O)[C@@H](NC(=O)CCc1cccc(F)c1)CC(=O)N1CCCC(CCO2)C1 (stereo partly drawn) [Compound 25, 3-(3-fluorophenyl)-N-((9S,12S)-5^4-methyl-8,11,14-trioxo-9-phenethyl-4-oxa-7,10-diaza-1(3,1)-piperidina-5(1,3)-benzenacyclotetradecaphane-12-yl)propanamide] | – | > 7.00 | – |
| COc1ccccc1CC(=O)N[C@H]1CC(=O)N2CCCC(CCOc3ccc(C)c(c3)CNC(=O)[C@H](CCc3ccccc3)NC1=O)C2 (stereo partly drawn) [Compound 84, 2-(2-methoxyphenyl)-N-((9S,12S)-5^4-methyl-8,11,14-trioxo-9-phenethyl-4-oxa-7,10-diaza-1(3,1)-piperidina-5(1,3)-benzenacyclotetradecaphane-12-yl)acetamide] | > 7.00 | – | – |
| CCOC(=O)N[C@H]1CC(=O)N2CCCC(CCOc3ccc(C)c(c3)CNC(=O)[C@H](CCc3ccccc3)NC1=O)C2 (stereo partly drawn) [Compound 39, ethyl ((9S,12S)-5^4-methyl-8,11,14-trioxo-9-phenethyl-4-oxa-7,10-diaza-1(3,1)-piperidina-5(1,3)-benzenacyclotetradecaphane-12-yl)carbamate] | – | – | < 100 |
| Cc1ccc2cc1CNC(=O)[C@H](CCc1ccccc1)NC(=O)[C@@H](NC(=O)c1ccccn1)CC(=O)N1CCCC(CCO2)C1 (stereo partly drawn) [Compound 40, N-((9S,12S)-5^4-methyl-8,11,14-trioxo-9-phenethyl-4-oxa-7,10-diaza-1(3,1)-piperidina-5(1,3)-benzenacyclotetradecaphane-12-yl)picolinamide] | – | > 7.00 | – |
| Cc1ccc2cc1CNC(=O)[C@H](CCc1ccccc1)NC(=O)[C@@H](NC(=O)c1ccccc1)CC(=O)N1CCCC(CCO2)C1 (stereo partly drawn) [Compound 26, N-((9S,12S)-5^4-methyl-8,11,14-trioxo-9-phenethyl-4-oxa-7,10-diaza-1(3,1)-piperidina-5(1,3)-benzenacyclotetradecaphane-12-yl)benzamide] | – | > 7.00 | – |
